Experimental data published in patent US20080076664A1, “Fungicidal Compositions” (priority 2004, published 2008).
Values joined by “and” are separate entries in the source; they are usually repeats but may differ in a detail not shown here. Equal entries are not always repeated.

Key:
Alternaria solani = assay: Fungal growth assay, control of Alternaria solani (Example B-4 a); assay type: cell-based
From the text: (§1) The action to be expected E for a given active ingredient combination obeys the so-called COLBY formula and can be calculated as follows (COLBY, S. R. “Calculating synergistic and antagonistic responses of herbicide combination”. Weeds, Vol. 15, pages 20-22; 1967):
(§2) According to COLBY, the expected (additive) action of active ingredients A)+B) using p+q ppm of active ingredient is
(§3) If the action actually observed (O) is greater than the expected action (E), then the action of the combination is super-additive, i.e. there is a synergistic effect. In mathematical terms the synergism factor SF corresponds to O/E. In the agricultural practice an SF of ≧1.2 indicates significant improvement over the purely complementary addition of activities (expected activity), while an SF of ≦0.9 in the practical application routine signals a loss of activity compared to the expected activity.
(§4) Conidia—harvested from a freshly grown colony—of the fungus were directly mixed into nutrient broth (PDB potato dextrose broth). After placing a (DMSO) solution of the test compounds into a microtiter plate (96-well format) the nutrient broth containing the fungal spores was added. […] The fungicide interactions in the combinations are calculated according to COLBY method.

Leptosphaeria nodorum = assay: Fungal growth assay, control of Leptosphaeria nodorum (Example B-8); assay type: cell-based
From the text: as §1, §2, §3
Action Against Leptosphaeria nodorum (Glume Blotch)—Fungal Growth Assay
as §4, with “Conidia of” for “Conidia—harvested from a freshly grown colony—of”, “fungus from cryogenic storage” for “fungus”

[1] = component B) alone, 0.022 ppm [mg/L]
[2] = component B) alone, 0.067 ppm [mg/L]
[3] = component B) alone, 0.002 ppm [mg/L]
[4] = component B) alone, 0.007 ppm [mg/L]
[5] = component B) alone, 0.600 ppm [mg/L]
[6] = Cpd Ia alone, 0.0001 ppm [mg/L]
[7] = Cpd Ia alone, 0.0003 ppm [mg/L]
[8] = Cpd Ia alone, 0.0074 ppm [mg/L]

SMILES	Observed control in % (% Cobs) (Alternaria solani; [1]) [%]	Observed control in % (% Cobs) (Alternaria solani; [2]) [%]	Observed control in % (% Cobs) (Leptosphaeria nodorum; [3]) [%]	Observed control in % (% Cobs) (Leptosphaeria nodorum; [4]) [%]	Observed control in % (% Cobs) (Alternaria solani; [3]) [%]	Observed control in % (% Cobs) (Alternaria solani; [5]) [%]	Observed control in % (% Cobs) (Leptosphaeria nodorum; [1]) [%]	Observed control in % (% Cobs) (Leptosphaeria nodorum; [2]) [%]	Observed control in % (% Cobs) (Alternaria solani; [4]) [%]	also measured
CO/C=C(/C(=O)OC)c1ccccc1Oc1cc(Oc2ccccc2C#N)ncn1 [Azoxystrobin]	0	31	5	14	–	–	–	–	–	–
N#Cc1c(Cl)c(Cl)c(Cl)c(C#N)c1Cl [Chlorotalonil, Chlorothalonil]	–	–	1	0	9	6	0	6	–	–
Cn1cc(C(=O)Nc2ccccc2-c2ccc(C#CC(C)(C)C)cc2)c(C(F)F)n1 [Cpd Ia]	–	–	–	–	–	–	–	–	–	Observed control in % (% Cobs) (Alternaria solani; [6]): 6% and 0%; Observed control in % (% Cobs) (Alternaria solani; [7]): 6% and 0% and 4%; Observed control in % (% Cobs) (Alternaria solani; Cpd Ia alone, 0.0008 ppm [mg/L]): 0%; Observed control in % (% Cobs) (Alternaria solani; [8]): 40% and 46% and 27%; Observed control in % (% Cobs) (Alternaria solani; Cpd Ia alone, 0.0667 ppm [mg/L]): 50% and 60%; Observed control in % (% Cobs) (Leptosphaeria nodorum; [6]): 0% and 2%; Observed control in % (% Cobs) (Leptosphaeria nodorum; [7]): 0%; Observed control in % (% Cobs) (Leptosphaeria nodorum; Cpd Ia alone, 0.0025 ppm [mg/L]): 0%; Observed control in % (% Cobs) (Leptosphaeria nodorum; [8]): 0%; Observed control in % (% Cobs) (Leptosphaeria nodorum; Cpd Ia alone, 0.0222 ppm [mg/L]): 9% and 0% and 5% and 6%; Observed control in % (% Cobs) (Leptosphaeria nodorum; Cpd Ia alone, 0.2000 ppm [mg/L]): 32% and 30%
CC(C1CC1)C(O)(Cn1cncn1)c1ccc(Cl)cc1 (stereo not drawn) [Cyproconazole]	–	–	3	0	3	15	–	4	0	–
Cc1cc(C2CC2)nc(Nc2ccccc2)n1 [Cyprodinil]	0	30	–	–	3	–	–	–	0	–
CC(Cc1ccc(C(C)(C)C)cc1)CN1CCCCC1 (stereo not drawn) [Fenpropidin]	–	0	–	4	0	0	0	–	–	–
N#Cc1c[nH]cc1-c1cccc2c1OC(F)(F)O2 [Fludioxonil]	0	25	7	–	0	–	–	9	0	–
CCCC1COC(Cn2cncn2)(c2ccc(Cl)cc2Cl)O1 (stereo not drawn) [Propiconazole]	–	–	12	–	–	–	11	–	0	–
